Measured values published in ChEMBL document CHEMBL1142326, “2-Amino-N-pyrimidin-4-ylacetamides as A2A receptor antagonists: 1. Structure-activity relationships and optimization of heterocyclic substituents” (J Med Chem, 2008).

Tests used:
Adenosine receptor A1 = molecular target: T1, Adenosine receptor A1 (Homo sapiens, UniProt P30542); experiment: Displacement of [3H]DPCPX from human adenosine A1 receptor expressed in HEK293 cells; assay type: cell-based
T1 sequence (P30542 whole entry): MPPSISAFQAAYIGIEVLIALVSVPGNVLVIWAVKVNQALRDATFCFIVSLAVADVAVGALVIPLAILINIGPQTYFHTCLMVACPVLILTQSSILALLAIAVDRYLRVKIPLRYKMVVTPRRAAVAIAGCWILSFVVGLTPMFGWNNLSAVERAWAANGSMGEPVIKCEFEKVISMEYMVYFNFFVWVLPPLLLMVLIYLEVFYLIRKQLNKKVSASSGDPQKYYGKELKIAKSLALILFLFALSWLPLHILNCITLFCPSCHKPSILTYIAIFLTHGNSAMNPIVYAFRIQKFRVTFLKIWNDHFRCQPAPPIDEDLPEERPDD

Adenosine receptor A2a [1] = molecular target: T2, Adenosine receptor A2a (Homo sapiens, UniProt P29274); experiment: Displacement of [3H]ZM241385 from human adenosine A2A receptor expressed in HEK293 cells; assay type: cell-based
T2 sequence (P29274 whole entry): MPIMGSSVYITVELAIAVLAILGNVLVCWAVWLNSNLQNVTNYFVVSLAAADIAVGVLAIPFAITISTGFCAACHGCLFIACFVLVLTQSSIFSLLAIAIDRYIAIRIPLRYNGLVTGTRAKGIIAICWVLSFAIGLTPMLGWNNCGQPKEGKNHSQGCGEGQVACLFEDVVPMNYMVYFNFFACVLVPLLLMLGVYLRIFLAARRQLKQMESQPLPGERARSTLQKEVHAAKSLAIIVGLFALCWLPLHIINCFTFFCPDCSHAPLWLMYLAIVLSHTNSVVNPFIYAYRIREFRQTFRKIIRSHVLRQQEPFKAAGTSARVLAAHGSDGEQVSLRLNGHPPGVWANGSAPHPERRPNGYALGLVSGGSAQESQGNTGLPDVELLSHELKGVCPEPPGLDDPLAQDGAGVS

Cytochrome P450 3A4 = Cytochrome P450 3A4 (Homo sapiens, UniProt P08684); experiment: Inhibition of CYP3A4; assay type: ADME
Chain of Cytochrome P450 3A4 (P08684 whole entry): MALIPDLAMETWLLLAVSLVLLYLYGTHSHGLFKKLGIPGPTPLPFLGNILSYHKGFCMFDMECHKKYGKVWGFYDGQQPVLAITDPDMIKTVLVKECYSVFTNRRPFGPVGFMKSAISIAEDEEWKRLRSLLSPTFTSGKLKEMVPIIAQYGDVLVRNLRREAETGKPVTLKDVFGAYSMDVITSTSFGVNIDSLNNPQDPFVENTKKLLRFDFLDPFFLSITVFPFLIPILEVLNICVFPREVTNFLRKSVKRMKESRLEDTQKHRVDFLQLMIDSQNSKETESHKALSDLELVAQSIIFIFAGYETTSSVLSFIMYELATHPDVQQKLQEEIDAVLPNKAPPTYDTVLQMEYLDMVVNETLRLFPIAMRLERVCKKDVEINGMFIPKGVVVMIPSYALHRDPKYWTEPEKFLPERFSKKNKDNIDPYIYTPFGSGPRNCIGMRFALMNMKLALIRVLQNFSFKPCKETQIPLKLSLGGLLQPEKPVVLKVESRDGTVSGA

Adenosine receptor A2a [2] = molecular target: T2, Adenosine receptor A2a; experiment: Antagonist activity at human adenosine A2A receptor by cAMP assay; assay type: functional

SMILES | Ki (Adenosine receptor A1) [nM] | Ki (Adenosine receptor A2a [1]) [nM] | IC50 (Cytochrome P450 3A4) [nM] | IC50 (Adenosine receptor A2a [2]) [nM]
CN1CCN(CC(=O)Nc2cc(-c3ccccn3)nc(-c3cccs3)n2)CC1 | 389 | 24 |  | 
Cc1cc(C)n(-c2cc(NC(=O)CN3CCN(C)CC3)nc(-c3ccc(C)o3)n2)n1 | 850 | 12 |  | 
CN1CCN(CC(=O)Nc2cc(-n3cccn3)nc(-n3cccn3)n2)CC1 | 4200 | 131 |  | 
Cc1cc(C)n(-c2nc(NC(=O)CN3CCN(C)CC3)cc(-c3nccs3)n2)n1 | 1700 | 27 |  | 
Cc1cc(C)n(-c2cc(NC(=O)CN3CCN(C)CC3)nc(-c3nccs3)n2)n1 | 2000 | 9 | 13000 | 
CN1CCN(CC(=O)Nc2cc(-n3cccn3)nc(-c3nccs3)n2)CC1 | 850 | 17 |  | 
Cc1ccc(-c2nc(NC(=O)CN3CCN(C)CC3)cc(-c3nccs3)n2)o1 | 720 | 51 |  | 
Cc1ccc(-c2nc(NC(=O)CN3CCN(C)CC3)cc(-n3nccc3C)n2)o1 | 390 | 14 |  | 
Cc1cc(C)n(-c2nc(NC(=O)CN3CCN(C)CC3)cc(-c3ocnc3C)n2)n1 | > 10000 | 190 |  | 
CN1CCN(CC(=O)Nc2cc(-c3nccs3)nc(-c3ccco3)n2)CC1 |  |  |  | 103
Cc1cc(C)n(-c2nc(NC(=O)CN3CCN(C)CC3)cc(-c3cnco3)n2)n1 | > 10000 | 1000 |  | 
Cc1ccc(-c2nc(NC(=O)CN3CCN(C)CC3)cc(-n3cccn3)n2)o1 | 850 | 135 |  | 
Cc1cc(C)n(-c2cc(NC(=O)CN3CCN(C)CC3)nc(-c3ccccn3)n2)n1 | 4400 | 25.5 |  | 
CN1CCN(CC(=O)Nc2cc(-n3cccn3)nc(-c3ccccn3)n2)CC1 | 930 | 53.4 |  | 
